88 molecules from a melting point compilation (Tetko et al.; mined from patent text by program, amines drawn as free bases though some values may be those of a salt) can be followed below.

SMILES strings stand for the structures. Some results are limits rather than exact numbers.

What is called melting point is the temperature of the solid-liquid transition. Molecule `CCCCc1ncc(/C=C(\Cc2ccc(C)s2)c2nnn[nH]2)n1Cc1ccccc1Cl` gave a melting point of 151 to 153 °C.
With `O=c1c(Br)c[nH]c2c([N+](=O)[O-])cccc12` the figure was 279 to 282 °C; with `CCOC(=O)CC(=O)Sc1cc(Cl)c(Cl)cc1Cl`, 41 to 43 °C; with `COc1cccc(N2CCN(C(=O)[C@](C)(C#N)[C@H](c3ccccc3OC)c3cccc4ccccc34)CC2)c1`, 147 to 148 °C.
The molecule `CC(C)(C)c1ccc(CN(CCOc2cccc(N)c2N)C(=O)C(F)(F)F)cc1` showed a melting point of 72 to 74 °C.
As for `CC1CCc2ncc(C(N)=O)c(=O)n21` (stereo not drawn), the figure is 191 °C; as for `CC(C)(O)CC(=O)N[C@H]1CC[C@H](CCN2CCN(c3nccc4c3CCO4)CC2)CC1`, 208 °C; as for `Nc1nc(C(=O)C(=O)O)cs1`, > 200 °C.
Molecule `O=C(CCc1cnoc1-c1ccccc1)Nc1ccc(CP(=O)(O)O)cc1` returned a melting point of 162 to 164 °C.
`COc1ccc(N(CCC(=O)O)C(=O)Cl)cc1` came in with a melting point of 90 °C.
Molecule `COCCC1=C(C)C(=Cc2ccc(S(N)(=O)=O)cc2)c2ccc(OC)cc21` displayed a melting point of 140 °C.
With `COc1ccc2c(c1)C(c1ccc(OCCN(C(C)C)C(C)C)cc1)c1c-2ccc2ccccc12` (stereo not drawn) the figure was 106 to 115 °C.
As for `Nc1ccc(Oc2ccc([N+](=O)[O-])cc2)cn1`, the figure is 132 to 135 °C; as for `CC(C)CCCC(C)NC(=O)CCC(=O)c1ccccc1` (stereo not drawn), 84 to 87 °C.
`C=C(c1ccc(C(=O)N(C)OC)cc1)C(O)(Cn1cncn1)c1ccc(F)cc1F` (stereo not drawn) yielded a melting point of 154 to 156 °C.
Molecule `O=C1CCNC(C(O)c2ccccc2)C1` (stereo not drawn) had a melting point of 124 to 126 °C.
Regarding `COC(=O)NN=Cc1ccc(Oc2ccc(F)cc2)cc1`, the melting point fell in the range of 109 to 111 °C.
For `COc1ccc(CN(C)CC(O)COc2ccc(NC(=O)c3cccc4c(=O)c5cccc(OC)c5[nH]c34)cc2)cc1OC` (stereo not drawn), the melting point is 175 °C.
Molecule `O=c1cc(-c2cccc(Cl)c2)c2cc(C(c3ccc(Cl)cc3)n3ccnc3)cc3c2n1CCC3` (stereo not drawn) showed a melting point of 195 °C.
Regarding `CN(C)CCc1[nH]c2ccc(Br)cc2c1CSc1ccccc1`, the melting point lay in the range of 112 to 115 °C.
As for `Cc1cc(C)c(S(=O)(=O)N(C)c2ccccc2CSc2nccn2-c2ccccn2)c(C)c1`, the figure is 131 to 133 °C; as for `CC(=N)NS(=O)(=O)C=Cc1ccc(Cl)c(Cl)c1`, 198 °C.
With `C#CCOC(=O)CCC(C)(c1ccc(O)cc1)c1ccc(O)cc1` the figure was 99.5 to 101 °C; with `CSC(=NCCSCc1nccs1)NC(=O)c1ccccc1`, 64 to 65 °C.
With `CN1CC(C[N+]2([O-])CC(=O)NC2=O)CC2c3cccc4[nH]cc(c34)CC21` (stereo not drawn), the melting point was 163 to 165 °C.
`CCOC(=O)C1=C(C(=O)OCC)C(c2cccc3ccccc23)C(C(=O)OCC)=C(C)N1` (stereo not drawn) showed a melting point of 112 °C.
As for `COc1ccc(Oc2ccn3nc(-c4ccccc4)c(-c4ccc(=O)n(C(C)C)n4)c3c2)nc1`, the figure is 148 to 150 °C; as for `CCn1c(=O)n(OCc2ccccc2)c(=O)c2cc(F)c(Cl)nc21`, 156 to 157 °C; as for `CCN(CC)C(=S)NC1CC2c3cccc4[nH]c(I)c(c34)CC2N(C)C1` (stereo not drawn), 198 °C.
Regarding `CC(=O)Oc1ccc(CCc2ccc(OC(C)=O)cc2)cc1`, the melting point lay within 115 to 116 °C.
With `COC(=O)/C=C/c1ccc(CC(C)NCC(O)c2ccccc2F)cc1` (stereo not drawn) the figure was 111 to 116 °C; with `COc1ccc2c(c1)-c1noc(N3CCCNCC3)c1CC2`, 106 to 109 °C.
Take `CS(=O)(=O)c1cc(C(=O)O)c(NCc2ccccc2)cc1Cl`: the melting point was found to be 179 °C.
The molecule `COCCN1CCN(C(=O)c2ccc3n2Cc2ccccc2N(C(=O)c2ccc(-c4ccccc4C(F)(F)F)c(C)c2)C3)CC1` showed a melting point of 140 to 144 °C.
As to `CN1Sc2sccc2C=C1CN1CCOCC1`, the melting point lay within 104 to 106 °C.
With `CCOC(=O)C(=O)Nc1c(C)oc2ccccc2c1=O` the figure was 100 °C.
As for `O=C(c1cccc([N+](=O)[O-])c1)n1c2cc(O)c(O)cc2c2ccc(O)c(O)c21`, the figure is 275 to 279 °C; as for `Cc1ccc(C(=O)NC(NC(=S)Nc2cccc([N+](=O)[O-])c2)C(C)(C)C)cc1` (stereo not drawn), 181 to 182 °C.
With `Cc1ccc2c(=O)n3ccsc3nc2c1` the figure was 174 to 178 °C; with `O=C(O)c1c(Sc2ccccc2)c2ccccc2n1-c1ccc2c(c1)OCO2`, 182 to 183 °C; with `CC(C)(CCCCCCC(=O)CCCCCCC(C)(C)C(=O)O)C(=O)O`, 74.5 to 76 °C.
With `O=C1Nc2cc(NC(=O)c3cccn(-c4ccc(F)cc4)c3=O)ccc2/C1=C/c1ccc[nH]1`, the melting point was > 300 °C.
With `O=C(Cn1ccnc1[N+](=O)[O-])NCC(F)(F)C(F)(F)F` the figure was 136 to 137 °C; with `Cc1cc2c(cc1-c1cc(C=CC(=O)O)n(C)c1)C(C)(C)CCC2(C)C`, 185 to 186 °C; with `O=c1[nH]ncc2cc(Cl)ccc12`, 272 to 273 °C.
Consider `CC(=O)NCCc1ccc(CCC(=O)O)cc1`, for which the melting point is 132 to 133 °C.
With `Oc1cc2[nH]c3c(O)c(O)cc(Br)c3c2cc1O` the figure was > 260 °C.
The molecule `CC(C)(CF)c1cc(Cl)nnc1Cl` displayed a melting point of 36 to 38 °C.
Regarding `COc1cc(C2(O)CCOCC2)ccc1OCc1ccc2ccccc2c1`, the melting point was 150 to 151 °C.
With `O=c1[nH]c2cc(Cl)ccc2n1C1CCN(CCCn2c(=S)[nH]c3ccccc32)CC1`, the melting point was determined as 267 °C.
On to `CN1CCN(c2cccc(Oc3cc(=O)[nH]c4ccccc34)c2)CC1`, for which the melting point lay in the range of 218 to 221 °C.
As for `CC(C)(C)CN1C(=O)C(=O)N(c2ccc(C#N)cc2)C1=S`, the melting point fell in the range of 128 to 129 °C.
As for `COc1ccc(C=CC(=O)N2CCN(c3nc(N)c4cc(OC)c(OC)cc4n3)CC2)cc1`, the figure is 265 to 267 °C; as for `COc1ccc(F)cc1C(C)(C)CC(O)(Cn1cc(CO)c(=O)c2ccccc21)C(F)(F)F` (stereo not drawn), 183 to 184 °C.
The molecule `CNC(=S)NCc1nc(C(C)C)c(Sc2cc(Cl)cc(Cl)c2)n1C` showed a melting point of 188 to 190 °C.
Turning to `O=C1C(=O)c2ccc(-c3ccccc3)cc2C2=C1SCC1(CCN(C(=O)c3cccc(Cl)c3)CC1)O2`, the melting point was in the range of 240 to 241 °C.
With `OCc1ccc(OCc2ccccc2)cn1` the figure was 66 to 68 °C; with `Cc1c(C#N)c(-c2ccc(C#N)cc2)c(C)n1Cc1ccc(Cl)c(C(O)C(F)(F)F)c1` (stereo not drawn), 196 to 198 °C.
As to `Oc1cc2c3cc(O)c(O)cc3n(Cc3cccnc3)c2cc1O`, the melting point fell in the range of 290 to 294 °C.
As for `O=C1C[C@@H]2CCC(c3ccccc3)=C[C@@H]2O1` (relative stereo), the figure is 90 to 92 °C; as for `COc1ccc(-c2cc(=O)n(CCc3ccccc3)nc2-c2ccc(OC)cc2)cc1`, 140 °C; as for `CCCC(=O)c1ccc(OC)c(C(=O)O)c1`, 105 to 106 °C.
`S=C(Nc1ccc(Cl)cc1)Nc1ncccc1OCc1c(Cl)cccc1Cl` showed a melting point of 179 to 180 °C.
With `CS(=O)(=O)NCCCC1COCc2nc3c(N)nc4ccccc4c3n21` (stereo not drawn) the figure was 249 to 250 °C; with `Cc1cc2oc(=O)c3c(c2cc1C)CCN(CCN1CC2CCC(CC2)C1)C3`, 174 to 175 °C; with `O=C(CNC(=O)[C@@H]1CCCN1C(=O)O)NCc1ccccc1`, 112 to 115 °C.
As for `COc1c(C)cnc(CSc2nc3ncc(O)cc3[nH]2)c1C`, the melting point was 178 to 180 °C.
With `COc1ccc(C2=NN(CC(=O)c3ccc4ccccc4c3)C(=O)[C@H]3CCCC[C@@H]23)cc1OC` (relative stereo) the figure was 89 to 90 °C; with `CC(=O)NNCC1CC2c3cccc4[nH]cc(c34)CC2N(C)C1` (stereo not drawn), 213 to 215 °C.
`COc1nc2cc(Cl)ccc2n2cnnc12` gave a melting point of 250 to 252 °C.
As for `O=C(O)COc1ccc(C(O)c2cccs2)c(Cl)c1Cl` (stereo not drawn), the figure is 163 °C.
`CC(C)(C)[Si](C)(C)Oc1ccc2cc(Br)ccc2c1`: the melting point was 62 to 63 °C.
As for `CC(=O)c1ccccc1Nc1ccc(O)cc1`, the figure is 168 to 169 °C; as for `O=c1n(-c2cc(O)c(Cl)cc2Cl)nc2n1CCCC2`, 211 to 212 °C; as for `CCc1ccc2c(=O)c(CSC)cn(C)c2c1`, 104 to 106 °C.
As for `O=C(Nc1cccc(Cc2ccccc2)c1)c1ccn2c1CSC2c1cccnc1` (stereo not drawn), the figure is 140 °C.
In turn, `O=C1Cc2c(-c3ccccc3)ccc(Cl)c2N1` displayed a melting point of 234 to 236 °C.
For the molecule `Cn1c(COc2ccc(CC3SC(=O)NC3=O)cc2)nc2ccc(Oc3ccc(NS(C)(=O)=O)cc3)cc21` (stereo not drawn), the melting point fell in the range of 225 to 226 °C.
With `Cc1ccc(NS(=O)(=O)c2ccc(-c3cnc4[nH]c(CCC5CCCCC(=S)N5)nc4c3)cc2)c(F)c1` (stereo not drawn) the figure was 271 °C.
`Cc1cc(COc2ccc(S(=O)(=O)NC[C@@H](C(=O)NO)N3CCCCC3)cc2)c2ccccc2n1` yielded a melting point of 150 °C.
As for `CC(O)Cn1cnc2c1c(=O)n(CC1CCCC1)c(=O)n2CC1CCCC1` (stereo not drawn), the melting point turned out to be 139 °C.
`CCS(=O)(=O)c1ccc(C(=O)NCc2ccc3c(c2)C(=O)N(C2(C)CCC(=O)NC2=O)C3=O)nc1` (stereo not drawn) yielded a melting point of 145 to 147 °C.
As for `O=c1c(N2CCNCC2)nc2ccc(F)cc2n1-c1ccccc1`, the figure is 142 to 143 °C.
The molecule `CC12CCC(C1)C1(C)Oc3ccc(C(O)c4ccc(CO)cc4)cc3C21C` (stereo not drawn) registered a melting point of 113 to 115 °C.
As for `CCOC(=O)C(Oc1ccc(Oc2ccc(C#N)cc2)cc1)C(=O)OCC`, the melting point was in the range of 42 to 46 °C.
With `CCCN1C(=O)COc2ccc(N3C(=O)C(C)=C(C)C3O)cc21` (stereo not drawn) the figure was 124 to 125 °C; with `CC(=O)OCC1OC(SCC#N)C(OC(C)=O)C(OC(C)=O)C1OC(C)=O` (stereo not drawn), 97 °C.
With `COc1ccccc1CN[C@H]1CCCN[C@H]1c1cc(Br)cc(Br)c1` (relative stereo) the figure was > 240 °C.
